Source: ChEMBL document CHEMBL3112483, “Synthesis and cytotoxic activity of MOM-ether analogs of isosteviol” (Bioorg Med Chem Lett, 2014)

Columns and labels:
[1] = Cytotoxicity against p53 deficient human H1299 cells at 100 uM after 24 hrs by MTT assay; format: functional; conditions: NCI-H1299, 24 h, read-out: GI
A549 = assay: Cytotoxicity against human A549 cells; format: functional, cell-based
[2] = Cytotoxicity against p53 deficient human H1299 cells after 24 hrs by MTT assay; format: functional, cell-based; conditions: NCI-H1299, 24 h
NCI-H1299 [3] = assay: Induction of apoptosis in p53 deficient human H1299 cells at IC50 assessed as histone release by ELISA relative to control; format: functional
[4] = Induction of apoptosis in human NL20 cells at IC50 assessed as histone release by ELISA relative to control; format: cell-based
NCI-H1299 [5] = assay: Induction of apoptosis in human […] cells expressing wild type p53 at IC50 assessed as histone release by ELISA relative to control; format: functional
[6] = Cytotoxicity against human NL20 cells at IC50 after 24 hrs by MTT assay; format: cell-based; conditions: nl20, 24 h

| SMILES | inhibition of growth at 100 µM [1] | further results |
| --- | --- | --- |
| COCO[C@@H]1C[C@]23CC[C@@H]4[C@](C)(COC(=O)COc5ccccc5)CCC[C@@]4(C)[C@@H]2CC[C@@]1(C)C3 | 70% |  |
| COCO[C@@H]1C[C@]23CC[C@@H]4[C@](C)(COC(=O)C(C)C)CCC[C@@]4(C)[C@@H]2CC[C@@]1(C)C3 | 20% |  |
| C[C@@]12CC[C@@H]3[C@@](CC[C@@H]4[C@](C)(COC(=O)/C=C/C(F)(F)F)CCC[C@]43C)(C[C@H]1O)C2 |  | IC50 (A549): 4.1 µM |
| COCO[C@@H]1C[C@]23CC[C@@H]4[C@](C)(COC(=O)NCc5ccccc5)CCC[C@@]4(C)[C@@H]2CC[C@@]1(C)C3 | 50% |  |
| COCO[C@@H]1C[C@]23CC[C@@H]4[C@](C)(COC(=O)Nc5ccccc5)CCC[C@@]4(C)[C@@H]2CC[C@@]1(C)C3 | 65% |  |
| CCCNC(=O)OC[C@]1(C)CCC[C@]2(C)[C@@H]1CC[C@@]13C[C@@H](OCOC)[C@@](C)(CC[C@H]12)C3 | 20% |  |
| COCO[C@@H]1C[C@]23CC[C@@H]4[C@](C)(COC(C)=O)CCC[C@@]4(C)[C@@H]2CC[C@@]1(C)C3 | 13% |  |
| COCO[C@@H]1C[C@]23CC[C@@H]4[C@](C)(COC(=O)c5ccccc5)CCC[C@@]4(C)[C@@H]2CC[C@@]1(C)C3 | 8% |  |
| COCO[C@@H]1C[C@]23CC[C@@H]4[C@](C)(COC(=O)NCc5ccc(OC)cc5)CCC[C@@]4(C)[C@@H]2CC[C@@]1(C)C3 | 89% | IC50 [2]: 21 µM; fold change (FC) (NCI-H1299 [3]): 7; fold change (FC) [4]: 4; fold change (FC) (NCI-H1299 [5]): 2; Activity [6]: 20% |
| COCO[C@@H]1C[C@]23CC[C@@H]4[C@](C)(COC(=O)Nc5ccc(C(C)=O)cc5)CCC[C@@]4(C)[C@@H]2CC[C@@]1(C)C3 | 60% |  |
| CCCCCCCC(=O)OC[C@]1(C)CCC[C@]2(C)[C@@H]1CC[C@@]13C[C@@H](OCOC)[C@@](C)(CC[C@H]12)C3 | 95% | IC50 [2]: 14 µM; fold change (FC) (NCI-H1299 [3]): 10; fold change (FC) [4]: 4; fold change (FC) (NCI-H1299 [5]): 2; Activity [6]: 20% |
| COCO[C@@H]1C[C@]23CC[C@@H]4[C@](C)(CO)CCC[C@@]4(C)[C@@H]2CC[C@@]1(C)C3 | 15% |  |
| CCCCCCCC(=O)OC[C@]1(C)CCC[C@]2(C)[C@@H]1CC[C@@]13C[C@@H](O)[C@@](C)(CC[C@H]12)C3 | 48% |  |
